Source: patent publication US8420657B2 (Novartis AG, priority 2008, dated 2013)

Legend:
GST-JAK2(808-1132) = target: T1, GST-JAK2(808-1132) (Homo sapiens, UniProt O60674); assay: JAK2 kinase assay (Caliper mobility shift, LabChip 3000); assay type: biochemical
T1 construct: GST-JAK2(808-1132); purchased Invitrogen (Carlsbad, USA) #4288
How it was run: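 Recombinant GST-JAK2(808-1132) kinase domain with FITC-labelled JAK3tide peptide substrate and ATP; 60 min at 30 °C, EDTA stop. Substrate/product ratio read by microfluidic mobility shift; compounds at 8 final concentrations, 10 to 0.003 μM.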

[1] = test system: JAK2-dependent nuclear translocation of STAT5-GFP in U-2 OS osteosarcoma cells; assay: STAT5 nuclear translocation assay (Cellomics), rhEpo stimulated U-2 OS STAT5-GFP cells; assay type: cell-based; details: Homo sapiens, U2OS; STAT5 translocation pathway
How it was run: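 U-2 OS cells stably expressing STAT5a-GFP and EpoR pre-treated with compound (final 10 μM to 0.003 μM, 0.1% DMSO) for 30 min at 37° C., then stimulated 1 h with 5 U/ml rhEpo. Nuclear-cytoplasmic GFP differential quantified by automated imaging (≥1000 cells/well, Hoechst nuclear mask). IC50 from % translocation normalized to untreated and DMSO-stimulated controls.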

T1 sequence (O60674 808-1132): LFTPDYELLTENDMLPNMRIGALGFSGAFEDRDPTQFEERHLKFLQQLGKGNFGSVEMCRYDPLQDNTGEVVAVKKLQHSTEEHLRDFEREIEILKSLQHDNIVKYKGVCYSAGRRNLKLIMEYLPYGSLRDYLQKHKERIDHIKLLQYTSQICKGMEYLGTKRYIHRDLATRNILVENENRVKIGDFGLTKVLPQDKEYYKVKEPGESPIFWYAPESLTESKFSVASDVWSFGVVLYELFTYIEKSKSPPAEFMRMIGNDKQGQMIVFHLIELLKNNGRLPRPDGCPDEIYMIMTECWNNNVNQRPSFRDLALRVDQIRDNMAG

Row | SMILES | IC50 (GST-JAK2(808-1132)) [nM] | IC50 [1] [nM]
1 | OC1CN(Cc2cc(Nc3ncc4ccn(-c5cc(F)c(CN6CCOCC6)c(F)c5)c4n3)ccc2Cl)C1 [Example 400, 1-{2-Chloro-5-[7-(3,5-difluoro-4-morpholin-4-ylmethyl-phenyl)-7H-pyrrolo[2,3-d]pyrimidin-2-ylamino]-benzyl}-azetidin-3-ol] | 7 | 1.7
2 | Fc1cc(-n2ccc3cnc(Nc4ccc(Cl)c(CN5CCNCC5)c4)nc32)cc(F)c1CN1CCOCC1 [Example 401, (4-Chloro-3-piperazin-1-ylmethyl-phenyl)-[7-(3,5-difluoro-4-morpholin-4-ylmethyl-phenyl)-7H-pyrrolo[2,3-d]pyrimidin-2-yl]-amine] | 7 | 138
3 | Fc1cc(-n2ccc3cnc(Nc4ccnc(CN5CCC(F)(F)C5)c4)nc32)cc(F)c1CN1CCOCC1 [Example 402, [7-(3,5-Difluoro-4-morpholin-4-ylmethyl-phenyl)-7H-pyrrolo[2,3-d]pyrimidin-2-yl]-[2-(3,3-difluoro-pyrrolidin-1-ylmethyl)-pyridin-4-yl]-amine] | ≤ 3 | 1370
4 | COC1CN(Cc2cc(Nc3ncc4ccn(-c5cc(F)c(CN6CCOCC6)c(F)c5)c4n3)ccc2C)C1 [Example 405, [7-(3,5-Difluoro-4-morpholin-4-ylmethyl-phenyl)-7H-pyrrolo[2,3-d]pyrimidin-2-yl]-[3-(3-methoxy-azetidin-1-ylmethyl)-4-methyl-phenyl]-amine] | ≤ 3 | 3.2
5 | CN1CCN(Cc2cc(Nc3ncc4ccn(-c5ccc(C(=O)N6CCS(=O)(=O)CC6)c(F)c5)c4n3)ccn2)CC1 [Example 406, (1,1-Dioxido-thiomorpholin-4-yl)-(2-fluoro-4-{2-[2-(4-methyl-piperazin-1-ylmethyl)-pyridin-4-ylamino]-pyrrolo[2,3-d]pyrimidin-7-yl}-phenyl)-methanone] | 4 | > 4000
6 | Fc1cc(-n2ccc3cnc(Nc4ccnc(CN5CCN(C6CC6)CC5)c4)nc32)cc(F)c1CN1CCOCC1 [Example 407, [2-(4-Cyclopropyl-piperazin-1-ylmethyl)-pyridin-4-yl]-[7-(3,5-difluoro-4-morpholin-4-ylmethyl-phenyl)-7H-pyrrolo[2,3-d]pyrimidin-2-yl]-amine] | ≤ 3 | 305
7 | O=C1CNCCN1Cc1cc(Nc2ncc3ccn(-c4cc(F)c(CN5CCOCC5)c(F)c4)c3n2)ccn1 [Example 409, 1-{4-[7-(3,5-Difluoro-4-morpholin-4-ylmethyl-phenyl)-7H-pyrrolo[2,3-d]pyrimidin-2-ylamino]-pyridin-2-ylmethyl}-piperazin-2-one] | ≤ 3 | 81.6
8 | Cc1ccc(Nc2ncc3ccn(-c4cc(F)c(CN5CCOCC5)c(F)c4)c3n2)cc1CN1CCN(CCN(C)C)C(=O)C1 [Example 410, 4-{5-[7-(3,5-Difluoro-4-morpholin-4-ylmethyl-phenyl)-7H-pyrrolo[2,3-d]pyrimidin-2-ylamino]-2-methyl-benzyl}-1-(2-dimethylamino-ethyl)-piperazin-2-one] | ≤ 3 | 8.3
9 | Cc1ccc(Nc2ncc3ccn(-c4cc(F)c(CN5CCOCC5)c(F)c4)c3n2)cc1Cn1ccnc1 [Example 412, [7-(3,5-Difluoro-4-morpholin-4-ylmethyl-phenyl)-7H-pyrrolo[2,3-d]pyrimidin-2-yl]-(3-imidazol-1-ylmethyl-4-methyl-phenyl)-amine] | ≤ 3 | 26.5
10 | Fc1cc(-n2ccc3cnc(Nc4ccc5c(c4)C4CCC5N4)nc32)cc(F)c1CN1CCOCC1 (centres unmarked) [Example 424, [7-(3,5-Difluoro-4-morpholin-4-ylmethyl-phenyl)-7H-pyrrolo[2,3-d]pyrimidin-2-yl]-(1,2,3 4-tetrahydro-1,4-epiazano-naphthalen-6-yl)-amine] | ≤ 3 | 9

Continued, values first:

Row | IC50 (GST-JAK2(808-1132)) [nM] | IC50 [1] [nM] | SMILES
11 | ≤ 3 | 28.5 | Cc1ccc(Nc2ncc3ccn(-c4cc(F)c(CN5CCOCC5)c(F)c4)c3n2)cc1Cn1cccn1 [Example 413, [7-(3,5-Difluoro-4-morpholin-4-ylmethyl-phenyl)-7H-pyrrolo[2,3-d]pyrimidin-2-yl]-(4-methyl-3-pyrazol-1-ylmethyl-phenyl)-amine]
12 | ≤ 3 | 4.2 | Cc1ccc(Nc2ncc3ccn(-c4cc(F)c(CN5CCOCC5)c(F)c4)c3n2)cc1Cn1cnnc1 [Example 414, [7-(3,5-Difluoro-4-morpholin-4-ylmethyl-phenyl)-7H-pyrrolo[2,3-d]pyrimidin-2-yl]-(4-methyl-3-[1,2,4]triazol-4-ylmethyl-phenyl)-amine]
13 | ≤ 3 | 6.9 | Cc1ccc(Nc2ncc3ccn(-c4cc(F)c(CN5CCOCC5)c(F)c4)c3n2)cc1CN1CCN(C)CC1=O [Example 415, 1-{5-[7-(3,5-Difluoro-4-morpholin-4-ylmethyl-phenyl)-7H-pyrrolo[2,3-d]pyrimidin-2-ylamino]-2-methyl-benzyl}-4-methyl-piperazin-2-one]
14 | 4.6 | 16 | Cc1ccc(Nc2ncc3ccn(-c4cc(F)c(CN5CCOCC5)c(F)c4)c3n2)cc1Cn1cc(CN(C)C)nn1 [Example 418, [7-(3,5-Difluoro-4-morpholin-4-ylmethyl-phenyl)-7H-pyrrolo[2,3-d]pyrimidin-2-yl]-[3-(4-dimethylaminomethyl-[1,2,3]triazol-1-ylmethyl)-4-methyl-phenyl]-amine]
15 | 4.3 | 38.5 | Cc1ccc(Nc2ncc3ccn(-c4cc(F)c(CN5CCOCC5)c(F)c4)c3n2)cc1Cn1cc(CO)nn1 [Example 419, (1-{5-[7-(3,5-Difluoro-4-morpholin-4-ylmethyl-phenyl)-7H-pyrrolo[2,3-d]pyrimidin-2-ylamino]-2-methyl-benzyl}-1H-[1 2,3]triazol-4-yl)-methanol]
16 | ≤ 3 | 2.7 | Cc1ccc(Nc2ncc3ccn(-c4cc(F)c(CN5CCS(=O)(=O)CC5)c(F)c4)c3n2)cc1CN1CCN(C)CC1 [Example 421, {7-[4-(1,1-Dioxido-thiomorpholin-4-ylmethyl)-3,5-difluoro-phenyl]-7H-pyrrolo[2,3-d]pyrimidin-2-yl}-[4-methyl-3-(4-methyl-piperazin-1-ylmethyl)-phenyl]-amine]
17 | ≤ 3 | 5.7 | Cc1ccc(Nc2ncc3ccn(-c4cc(F)c(CN5CCS(=O)(=O)CC5)c(F)c4)c3n2)cc1CN1CCN(C)C(=O)C1 [Example 422, 4-(5-{7-[4-(1,1-Dioxido-thiomorpholin-4-ylmethyl)-3,5-difluoro-phenyl]-7H-pyrrolo[2,3-d]pyrimidin-2-ylamino}-2-methyl-benzyl)-1-methyl-piperazin-2-one]
18 | ≤ 3 | 5.9 | Cc1ccc(Nc2ncc3ccn(-c4cc(F)c(CN5CCS(=O)(=O)CC5)c(F)c4)c3n2)cc1CN1CC(O)C1 [Example 423, 1-(5-{7-[4-(1,1-Dioxido-thiomorpholin-4-ylmethyl)-3,5-difluoro-phenyl]-7H-pyrrolo[2,3-d]pyrimidin-2-ylamino}-2-methyl-benzyl)-azetidin-3-ol]
19 | ≤ 3 | 10.7 | Cc1ccc(Nc2ncc3ccn(-c4cc(F)c(CN5CCS(=O)(=O)CC5)c(F)c4)c3n2)cc1CN1CCNCC1 [Example 428, {7-[4-(1,1-Dioxido-thiomorpholin-4-ylmethyl)-3,5-difluoro-phenyl]-7H-pyrrolo[2,3-d]pyrimidin-2-yl}-(4-methyl-3-piperazin-1-ylmethyl-phenyl)-amine]
